# Structures can show the parent of a compound that is named as a salt.
# Assays:
# [1] = DVS, 25° C.
# Description: The hygroscopicity was measured using a Dynamic Vapor Sorption apparatus or DVS (Surface Measurement Systems Ltd, UK) at 25° C. and at various controlled relative humidity conditions from 0 to 90%.
# First the relative humidity was changed from 0% to 60% and back to 0% (cycle 1). Subsequently, the relative humidity was raised by steps of 10% until 90% and reduced with steps of 10% until 0% (cycle 2). Finally, the relative humidity was changed to 60% and back to 0% (cycle 3). At each step the sample was conditioned till constant weight.
# [2] = Approximate water solubility of pramipexole acid addition salts (saturation in water, shaken overnight, evaporation and weighing); conditions: thermodynamic from solid
# Description: In general the acid addition salt was added to 2 ml of water in a test tube (1 ml of water was used for some of the very soluble salts) until a residue remained. The tube was shaken overnight at room temperature. The next morning 1 ml of the clear solution from above the solid residue was removed from the tube. This sample was evaporated and the residue was dried and weighed. In this way the approximate solubility of the salt in the water was determined.
compound,measurement,setting,value
"CCCN[C@H]1CCc2nc(N)sc2C1 [Pramipexole dihydrochloride monohydrate, pramipexole dihydrochloride monohydrate]",water uptake relative to dry mass at 60% relative humidity,[1]; 60% relative humidity,over 1.2%
same,total water uptake relative to the dry mass in the step from 70% and 80% relative humidity,[1]; 70% to 80% relative humidity,5%
same,solubility,[2],> 300 mg/mL

# From patent US7365086B2, “Pramipexole acid addition salts” (Synthon IP Inc., priority 2003, dated 2008)
